Structures can show the parent of a compound that is named as a salt. Where two headings read alike, the source gives them in different places.
How the values were obtained:
CDK2/Cyclin A = CDK2/Cyclin A (Homo sapiens, UniProt P24941); experiment: Inhibition of CDK2/Cyclin A Retinoblastoma Kinase Activity; type: biochemical; conditions: apparent Ki, CDK2/proteolyzed cyclin A, Rb fragment substrate, 25 μM ATP
In short: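 Radiometric filter-binding readout of phosphate transfer to an Rb substrate fragment by purified CDK2/truncated cyclin A at 10 or 19 nM. Run at pH 7.4 with 25 μM ATP, 30 °C, 60–75 min, linear rates; background without enzyme subtracted, Ki from competitive-inhibition models.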

HCT-116 cell line = experiment: Inhibition of cell growth, tetrazolium salt (MTT) assay; type: cell-based; conditions: Homo sapiens, HCT-116, 120 h, MTT, three to five days, read-out: HCT-116 IC50
In short: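 Growth inhibition is scored relative to cells receiving only 0.5% (v/v) DMSO. Plated cells rest 4 h, then take compound for three to five days at 37° C; MTT reduction to formazan is read at 540 nm.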

[1] = target: human CDK4 and genetically truncated (1-264) cyclin D3 (Homo sapiens, UniProt P11802); experiment: Inhibition of CDK4/Cyclin D Retinoblastoma Kinase Activity; type: biochemical; conditions: apparent Ki, CDK4/truncated cyclin D3, Rb fragment substrate, 25 μM ATP
Sequence of human CDK4 and genetically truncated (1-264) cyclin D3 (P11802 whole entry, the tested form may be a part): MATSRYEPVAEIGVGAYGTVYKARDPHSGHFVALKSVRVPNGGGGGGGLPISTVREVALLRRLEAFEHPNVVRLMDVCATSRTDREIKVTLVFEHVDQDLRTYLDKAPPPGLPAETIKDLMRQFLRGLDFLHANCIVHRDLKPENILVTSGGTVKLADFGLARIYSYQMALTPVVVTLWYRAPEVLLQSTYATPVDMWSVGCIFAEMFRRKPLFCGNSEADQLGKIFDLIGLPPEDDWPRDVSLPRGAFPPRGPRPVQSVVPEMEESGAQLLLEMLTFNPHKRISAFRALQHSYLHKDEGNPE
Sequence of human CDK4 and genetically truncated (1-264) cyclin D3 (P30281 1-264 partner): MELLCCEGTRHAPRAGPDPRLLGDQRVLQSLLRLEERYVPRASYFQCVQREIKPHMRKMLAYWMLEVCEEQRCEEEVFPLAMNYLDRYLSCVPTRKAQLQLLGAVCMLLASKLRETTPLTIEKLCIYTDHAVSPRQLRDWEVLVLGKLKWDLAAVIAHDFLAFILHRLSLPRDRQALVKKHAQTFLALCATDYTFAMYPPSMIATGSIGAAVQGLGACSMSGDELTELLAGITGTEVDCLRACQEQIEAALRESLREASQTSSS
In short: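 Apparent Ki values come from competitive or competitive tight-binding inhibition fits of background-corrected 32P/33P incorporation into His-tagged Rb fragment (386-928), captured on nitrocellulose. Reaction: 5 nM insect-cell-expressed human CDK4 with cyclin D3 (1-264), 25 μM ATP, pH 7.4 HEPES, 2% DMSO, 30° C., 20 min, extended to 60 min for tight-binding inhibitors.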

| SMILES | Ki (CDK2/Cyclin A) [nM] | IC50 (HCT-116 cell line; first HCT-116 column (c4)) [nM] | IC50 (HCT-116 cell line; second HCT-116 column (c5)) [nM] | Ki [1] [nM] |
| --- | --- | --- | --- | --- |
| CN1CCN(c2ncc(S(=O)(=O)N3CCC(Nc4nc(N)c(C(=O)c5c(F)cccc5F)s4)CC3)cn2)CC1 [Example G34, (4-Amino-2-{1-[2-(4-methyl-piperazin-1-yl)-pyrimindine-5-sulfonyl]-piperidin-4-ylamino}-thiazol-5-yl)-(2,6-difluoro-phenyl)-methanone Hydrochloride Salt] | 0.82 | 40 | 250 | 0.57 |
| Nc1nc(NC2CCN(S(=O)(=O)c3ccc(O)nc3)CC2)sc1C(=O)c1c(F)cccc1F [Example H1, 1-{4-Amino-2-[1-(6-hydroxy-pyridine-3-sulfonyl)-piperidin-4-ylamino]-thiazol-5-yl}-1-(2,6-difluoro-phenyl)-methanone Trifluoroacetic Acid Salt] | < 1 | 2600 | > 5000 | 0.72 |
| CN1CCCC(COc2ccc(S(=O)(=O)N3CCC(Nc4nc(N)c(C(=O)c5c(F)cccc5F)s4)CC3)cn2)C1 (centres unmarked) [Example H7, 1-[4-Amino-2-{1-[6-(1-methyl-piperidin-3RS-ylmethoxy)-pyridine-3-sulfonyl]-piperidin-4-ylamino}-thiazol-5-yl)-1-(2,6-difluoro-phenyl)-methanone Trifluoroacetic Acid Salt] | 0.8 | 40 | 250 | 0.21 |
| CN1CCC[C@H](COc2ccc(S(=O)(=O)N3CCC(Nc4nc(N)c(C(=O)c5c(F)cccc5F)s4)CC3)cn2)C1 [Example H11, 1-(4-Amino-2-{1-[6-(1-methyl-piperidin-3S-ylmethoxy)-pyridine-3-sulfonyl]-piperidin-4-ylamino}-thiazol-5-yl)-1-(2,6-difluoro-phenyl)-methanone Dihydrochloride] | 6.9 | 42 | 130 | 0.28 |
| CN1CCC[C@H]1COc1ccc(S(=O)(=O)N2CCC(Nc3nc(N)c(C(=O)c4c(F)cccc4F)s3)CC2)cn1 [Example H12, 1-(4-Amino-2-{1-[6-(1-methyl-pyrrolidin-2S-ylmethoxy)-pyridine-3-sulfonyl]-piperidin-4-ylamino}-thiazol-5-yl)-1-(2,6-difluoro-phenyl)-methanone] | 0.88 | 58 | 400 | 0.39 |
| CN1CCC(Oc2ccc(S(=O)(=O)N3CCC(Nc4nc(N)c(C(=O)c5c(F)cccc5F)s4)CC3)cn2)CC1 [Example H14, 1-(4-Amino-2-{1-[6-(1-methyl-piperidin-4-yloxy)-pyridine-3-sulfonyl]-piperidin-4-ylamino}-thiazol-5-yl)-1-(2,6-difluoro-phenyl)-methanone Hydrochloride] | 0.74 | 40 | 400 | 0.34 |
| CN1CCCC(Oc2ccc(S(=O)(=O)N3CCC(Nc4nc(N)c(C(=O)c5c(F)cccc5F)s4)CC3)cn2)C1 (centres unmarked) [Example H16, 1-(4-Amino-2-{1-[6-(1-methyl-piperidin-3RS-yloxy)-pyridin-3-sulfonyl]-piperidin-4-ylamino}-thiazol-5-yl)-1-(2,6-difluoro-phenyl)-methanone Hydrochloride] | 0.48 | 57 | 500 | 0.28 |
| CN(C)CCOc1ccc(S(=O)(=O)N2CCC(Nc3nc(N)c(C(=O)c4c(Cl)cccc4Cl)s3)CC2)cn1 [Example H17, 1-(4-Amino-2-{1-[6-(2-dimethylamino-ethoxy)-pyridine-3-sulfonyl]-piperidin-4-ylamino}-thiazol-5-yl)-1-(2,6-dichloro-phenyl)-methanone Hydrochloride Salt] | 1.8 | 50 | 170 | 1.7 |
| CC(C)(C)NCCOc1ccc(S(=O)(=O)N2CCC(Nc3nc(N)c(C(=O)c4c(F)cccc4F)s3)CC2)cn1 [Example H20, (4-Amino-2-{1-[6-(2-tert-butylamino-ethoxy)-pyridine-3-sulfonyl]-piperidin-4-ylamino}-thiazol-5-yl)-(2,6-difluoro-phenyl)-methanone Hydrochloride Salt] | 1.5 | 380 | 3000 | 0.51 |

Next, values leading:

| Ki (CDK2/Cyclin A) [nM] | IC50 (HCT-116 cell line; first HCT-116 column (c4)) [nM] | IC50 (HCT-116 cell line; second HCT-116 column (c5)) [nM] | Ki [1] [nM] | SMILES |
| --- | --- | --- | --- | --- |
| 2.8 | 80 | 250 | 0.77 | Nc1nc(NC2CCN(S(=O)(=O)c3ccc(OCCN4CCOCC4)nc3)CC2)sc1C(=O)c1c(F)cccc1F [Example H2, 1-{4-Amino-2-[1-{6-morpholin-(4-yl-ethoxy)-pyridine-3-sulfonyl}-piperidin-4-ylamino]-thiazol-5-yl}-1-(2,6-difluoro-phenyl)-methanone Hydrochloride] |
| 1.8 | 51 | 320 | 0.67 | CN(C)CCOc1ccc(S(=O)(=O)N2CCC(Nc3nc(N)c(C(=O)c4c(F)cccc4F)s3)CC2)cn1 [Example H3, 1-(4-Amino-2-{1-[6-(2-dimethylamino-ethoxy)-pyridine-3-sulfonyl]-piperidin-4-ylamino}-thiazol-5-yl)-1-(2,6-difluoro-phenyl)-methanone Hydrochloride] |
| 0.7 | 100 | 500 | 2.5 | Nc1nc(NC2CCN(S(=O)(=O)c3ccc(OCCO)nc3)CC2)sc1C(=O)c1c(F)cccc1F [Example H4, 1-(4-Amino-2-{1-[6-(2-hydroxy-ethoxy)-pyridine-3-sulfonyl]-piperidin-4-ylamino}-thiazol-5-yl)-1-(2,6-difluoro-phenyl)-methanone] |
| 1.1 | 71 | > 500 | 0.39 | Nc1nc(NC2CCN(S(=O)(=O)c3ccc(OCCN4CCCC4)nc3)CC2)sc1C(=O)c1c(F)cccc1F [Example H5, 1-(4-Amino-2-{1-[6-(2-pyrrolidin-1-yl-ethoxy)-pyridine-3-sulfonyl]-piperidin-4-ylamino}-thiazol-5-yl)-1-(2,6-difluoro-phenyl)-methanone Trifluoroacetic Acid Salt] |
| 0.84 | 60 | 500 | 0.38 | Nc1nc(NC2CCN(S(=O)(=O)c3ccc(OCCN4CCCCC4)nc3)CC2)sc1C(=O)c1c(F)cccc1F [Example H6, 1-[4-Amino-2-{1-[6-(2-piperidin-1-yl-ethoxy)-pyridine-3-sulfonyl]-piperidin-4-ylamino}-thiazol-5-yl)-1-(2,6-difluoro-phenyl)-methanone Dihydrochloride] |
| < 1 | 580 | 1300 | 0.67 | Nc1nc(NC2CCN(S(=O)(=O)c3ccc(OCc4cccnc4)nc3)CC2)sc1C(=O)c1c(F)cccc1F [Example H8, 1-(4-Amino-2-{1-[6-(pyridin-3-ylmethoxy)-pyridine-3-sulfonyl]-piperidin-4-ylamino}-thiazol-5-yl)-1-(2,6-difluoro-phenyl)-methanone Trifluoroacetic Acid Salt] |
| < 0.5 | 480 | 3100 | 1.2 | Nc1nc(NC2CCN(S(=O)(=O)c3ccc(OCCn4ccnc4)nc3)CC2)sc1C(=O)c1c(F)cccc1F [Example H9, 1-(4-Amino-2-{1-[6-(2-imidazol-1-yl-ethoxy)-pyridine-3-sulfonyl]-piperidin-4-ylamino}-thiazol-5-yl)-1-(2,6-difluoro-phenyl)-methanone Hydrochloride] |
| 0.64 | 71 | 500 | 0.34 | CN(C)CCCOc1ccc(S(=O)(=O)N2CCC(Nc3nc(N)c(C(=O)c4c(F)cccc4F)s3)CC2)cn1 [Example H15, 1-(4-Amino-2-{1-[6-(3-dimethylamino-propoxy)-pyridine-3-sulfonyl]-piperidin-4-ylamino}-thiazol-5-yl)-1-(2,6-difluoro-phenyl)-methanone Hydrochloride] |
| 1.6 | 55 | > 500 | 0.3 | CCN(CC)CCOc1ccc(S(=O)(=O)N2CCC(Nc3nc(N)c(C(=O)c4c(F)cccc4F)s3)CC2)cn1 [Example H18, (4-Amino-2-{1-[6-(2-diethylamino-ethoxy)-pyridine-3-sulfonyl]-piperidin-4-ylamino}-thiazol-5-yl)-(2,6-difluoro-phenyl)-methanone Trifluoroacetic Acid Salt] |
| 1.5 | 180 | 2500 | 0.52 | CC(C)NCCOc1ccc(S(=O)(=O)N2CCC(Nc3nc(N)c(C(=O)c4c(F)cccc4F)s3)CC2)cn1 [Example H19, (4-Amino-2-{1-[6-(2-isopropylamino-ethoxy)-pyddine-3-sulfonyl]-piperidin-4-ylamino}-thiazol-5-yl)-(2,6-difluoro-phenyl)-methanone Hydrochloride Salt] |
| 1.5 | 110 | 1500 | 0.28 | Nc1nc(NC2CCN(S(=O)(=O)c3ccc(OCCNC4CC4)nc3)CC2)sc1C(=O)c1c(F)cccc1F [Example H21, (4-Amino-2-{1-[6-(2-cyclopropylamino-ethoxy)-3-sulfonyl]-piperidin-4-ylamino}-thiazol-5-yl)-(2,6-difluoro-phenyl)-methanone Hydrochloride Salt] |

Source: US20050101595A1, “N-containing cycloalkyl-substituted amino-thiazole derivatives and pharmaceutical compositions for inhibiting cell proliferation and methods for their use” (PFIZER INC., priority 2003, published 2005)
